In PubChem BioAssay (NCI):
Several values for one entry are separate records, joined by “and”; a condition that tells them apart may be missing. Identical values can stand only once.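 Briefly, cells in 96-well plates were exposed to five compound concentrations for 48 h, and endpoints were estimated by linear interpolation. Abbreviation: GI50, concentration required for 50% inhibition of growth. The concentration for full growth arrest is given as TGI.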 *1 amine or outer side, *2 acyl side, *3 side chain or, on linkers, in order; H or OH if unused. Where a SMILES comes first, the peptide text is derived from it. Bridges are numbered along the chain shown (N, C = ends). Roman numbers before positions name the chains, in order. [ ]: non-standard residue; d: D form. Actinocin(9to1) = Cc1c2oc3c(C)ccc(C(=O)[*:1])c3nc-2c(C(=O)[*:2])c(N)c1=O; NMeF = CN[CH](Cc1ccccc1)C(=O)O; Sar = CNCC(=O)O

Assays:
Assay in all cases: NCI tumour cell line growth inhibition, 48 h
MALME-3M melanoma = system: MALME-3M melanoma
NCI-H23 lung = system: NCI-H23 lung
OVCAR-3 ovarian = system: OVCAR-3 ovarian
RPMI-8226 leukemia = system: RPMI-8226 leukemia
SF-295 CNS = system: SF-295 CNS
SK-MEL-5 melanoma = system: SK-MEL-5 melanoma
TK-10 renal = system: TK-10 renal
RXF 393 renal = system: RXF 393 renal

SMILES | GI50 (MALME-3M melanoma) [µM] | TGI (MALME-3M melanoma) | GI50 (NCI-H23 lung) [µM] | TGI (NCI-H23 lung) | GI50 (OVCAR-3 ovarian) [µM] | TGI (OVCAR-3 ovarian) | GI50 (RPMI-8226 leukemia) [µM] | TGI (RPMI-8226 leukemia) [µM] | GI50 (SF-295 CNS) [µM] | TGI (SF-295 CNS) | GI50 (SK-MEL-5 melanoma) [µM] | TGI (SK-MEL-5 melanoma) | GI50 (TK-10 renal) | TGI (TK-10 renal) [µM] | TGI (RXF 393 renal) | GI50 (RXF 393 renal) [µM]
CCSc1ccc(C2C(Br)C(=O)N2c2cc(OC)c(OC)c(OC)c2)cc1 (stereo unspecified) | 11.3 | 32.4 µM | 0.478 | 73.4 µM | 0.109 | 0.73 µM | 0.361 | 4.37 | 0.087 | > 100 µM | 0.0861 | 2.84 µM | 14.3 µM | 33.4 |  | 
COc1cc(NC(=O)C2=C(N3CCOCC3)/C(=C/c3ccc(Cl)cc3)CC2)cc(OC)c1OC | > 100 | > 100 µM | 48.8 | > 100 µM | 24.9 | > 100 µM | 2.97 | > 100 | 7.09 | 40.7 µM | > 100 | > 100 µM | 27.9 µM | 86.5 |  | 
O=C(/C=C\c1ccccc1)N1CCc2ccccc2C1 |  |  |  | 51.9 µM |  |  |  | 52.4 |  | > 100 µM |  | 39.9 µM |  | > 100 | > 100 µM | 
C[C@@H]1COCCN1c1cc(C2(O)C[C@H]3CC[C@@H](C2)O3)c2cnn(-c3ccn[nH]3)c2n1 (stereo partly specified) | 0.0656 | 0.462 µM | 0.0286 | 0.188 µM | 0.0874 | 0.862 µM | 0.162 | 3.72 | 0.0329 | 0.308 µM | 0.107 | 0.279 µM | 0.0515 µM | 1.01 | 0.0581 µM | < 0.0161
CCN(Cc1c(Cl)cccc1Cl)c1ccc(CO)c(Cl)c1 | 12.6 | 27.2 µM | 10.8 | 26.2 µM | 0.232 | 1.07 µM | 1.12 | 17.6 |  | 1.37 µM | 2.86 | 19.5 µM | < 0.0238 µM | 0.0592 | 24.7 µM | 7.16
C=CC1=C(C)C2=NC1=CC1=NC(=C(CC)/C1=C\O)C=C1N=C3C(=C1C)C(=O)[C@H](C(=O)OC)C3=C1NC(=C2)[C@@H](C)[C@@H]1CCC(=O)O |  | > 100 µM |  | > 100 µM |  |  |  |  |  | > 100 µM |  | > 100 µM |  | > 100 | 13.3 µM | 
Cc1coc2c1C(OC(=O)C(C)C)C1(C)C(C)CCC(O)C1C2=O (stereo unspecified) |  | > 100 µM |  | > 100 µM |  | > 100 µM |  | > 100 |  | > 100 µM |  | > 100 µM |  | > 100 | > 100 µM | 
Cc1c(Cl)cccc1NC(=O)c1sc2nc3c(cc2c1N)CCCCC3 | 0.357 | 37.7 µM | 0.391 | > 50 µM | 0.173 | 1.69 µM | 0.434 | > 50 | 0.17 | 10 µM | 0.263 | 48.6 µM | 6.66 µM | 45.6 | 5.57 µM | 0.217
O=C1OCC2=C1C(c1ccccc1)c1cc3c(cc1N2CCO)OCCO3 (stereo unspecified) | > 50 | > 50 µM | 0.448 | > 50 µM | 0.132 | 0.312 µM | 0.392 | > 50 | 0.183 |  | 0.181 | 7.18 µM | 1.27 µM |  |  | 
CN(C)CCCn1c(-c2nonc2N)nc2cnccc21 | > 25 | > 25 µM | > 25 | > 25 µM | > 25 | > 25 µM | > 25 | > 25 | > 25 | > 25 µM | > 25 | > 25 µM | > 9.98 µM | > 25 | > 25 µM | > 5.19
CC(O)c1cc(C(=O)N[C@@H](C)Cn2ccc(-c3ccc(C#N)c(Cl)c3)n2)n[nH]1 (stereo partly specified) | 42.5 | > 100 µM | 76 | > 100 µM | 47.3 | > 100 µM | 15.3 | 80.6 | 23.9 | > 100 µM | 15.2 | 48.3 µM | > 100 µM | > 100 | > 100 µM | > 100
N#CC1C=Cc2c(ccc3ccccc23)N1C(=O)c1ccccc1 (stereo unspecified) |  |  | 0.433 | > 100 µM | 0.167 | 0.574 µM | 0.39 | > 100 | 0.0268 | 0.0747 µM | 0.132 | > 42.5 µM | 3.78 µM | > 65.8 |  | 
CC(=O)[O-].O=C([CH-]C(=O)c1ccccc1)c1ccccc1.O=C([CH-]C(=O)c1ccccc1)c1ccccc1.[Sm+3] | 4.08 | 34 µM | 3.1 | 15.5 µM | 2.62 | 13.3 µM | 5.57 | 33.8 | 2.66 | 17.2 µM | 1.66 | 10.2 µM | 6.41 µM | 48.7 |  | 
Cc1c2oc3c(C)ccc(C(=O)NC4C(=O)NC(C(C)C)C(=O)N5CCCC5C(=O)N(C)CC(=O)N(C)C(Cc5ccccc5)C(=O)OC4C)c3nc-2c(C(=O)NC2C(=O)NC(C(C)C)C(=O)N3CCCC3C(=O)N(C)CC(=O)N(C)C(Cc3ccccc3)C(=O)OC2C)c(N)c1=O (stereo unspecified) (I: TVP[Sar][NMeF] / II: TVP[Sar][NMeF]; ester I:1-I:C, II:1-II:C; linker I:N-II:N via Actinocin(9to1); configuration not given here) |  | < 0.01 µM and 0.0493 µM |  | < 0.01 µM and 0.0376 µM |  | < 0.01 µM and 0.0453 µM |  | > 1 |  | < 0.0141 µM and 0.108 µM |  | < 0.01 µM and 0.0479 µM | < 0.01 µM and 0.049 µM | > 1 | < 0.01 µM and 0.0305 µM | 
COc1c(B(O)O)cc(F)cc1-c1nc2ccc3[nH]ncc3c2c2c1CCCC2 | 3.54 | 6.82 µM | 2.02 | 7.61 µM | 2.95 | 10.2 µM | 1.12 | 5.58 | 1.76 | 10.8 µM | 1.99 | 7.34 µM | < 0.01 µM | 9.43 | 0.294 µM | < 0.01
O=C1C(Cl)=C(Nc2cccc(C(F)(F)F)c2)C(=O)N1Cc1ccc(Cl)cc1 | < 0.0488 | 0.741 µM | 0.162 | 8.01 µM | 0.16 | 5.76 µM |  |  |  | 16.2 µM | 0.621 | 13.5 µM | 1.08 µM | 19.3 |  | 
O=C(CCCCC(=O)N/N=C\c1ccccc1O)N/N=C\c1ccccc1O |  |  |  |  | 3.87 | > 100 µM |  |  | 1.98 | 6.55 µM | 3.22 | > 100 µM | 6.4 µM | > 100 | > 100 µM | 3.76
C[C@@H](Nc1nc(Nc2ccc(F)c(Cl)c2)nc2ccccc12)C1CC1 | 1.66 | 3.65 µM | 1.48 | 9.34 µM | 3.21 | 12.7 µM | 1.33 | 3.81 | 1.88 | 8.92 µM | 1.55 | 2.96 µM | 6.96 µM | 20.3 |  | 
Oc1c(CN2CCN(c3ccccc3)CC2)cc(Br)c2cccnc12 |  | 42.2 µM |  | > 100 µM |  | > 79.5 µM |  | > 40.4 |  | > 95 µM |  |  |  | > 100 | 13.5 µM | 
Cc1c([N+](=O)[O-])oc2ccc3ccccc3c12 |  |  |  | > 100 µM |  | > 100 µM |  | > 100 |  | > 100 µM |  | > 100 µM |  | > 100 | > 100 µM | 
CCCCCn1c(C)cc(/C=C\c2ccc3cc(C)ccc3[n+]2C)c1C |  |  | 0.0414 | 1.1 µM | 0.0793 | 0.911 µM | 0.0202 | 0.322 | 0.0982 | 0.595 µM | 0.0801 | 0.219 µM | 0.157 µM | 0.89 |  | 
CC1(C)C(=O)/C(=C\c2cccnc2)C[C@]2(C)[C@H]3CC[C@@H]4[C@@H](C(=O)/C=C/c5ccncc5)CC[C@@]4(C)[C@]3(C)CC[C@@H]12 | 1.78 | 3.43 µM |  |  | 1.7 | 3.36 µM | 1.21 | 5.43 | 1.95 | 4.31 µM | 1.67 | 3.05 µM | 2.7 µM | 5.29 | 3.18 µM | 1.72
NC(=S)NN=C1CSSC1 | 3.67 | 28.8 µM | 3.78 | 35.5 µM | 2.54 | 10.5 µM | 11.4 | 55.6 |  |  | 1.3 | 2.76 µM | 2.73 µM | 7.62 | 5.58 µM | 1.45
COc1cc2c3c(n(C)c(=O)c2cc1OC)-c1cc2c(cc1/C3=C\CCNCCCN)OCO2 | 0.863 | 4.02 µM | 2.67 | 12.4 µM |  |  |  |  |  |  |  |  | 5.29 µM | 22.4 | 14.5 µM | 1.06
Nc1c(C(=O)Nc2cccc(Cl)c2Cl)sc2nc3c(cc12)C(=O)CCC3 | > 100 | > 100 µM |  |  | > 100 | > 100 µM | > 100 | > 100 | 0.476 | > 100 µM | 3.54 | > 100 µM | > 100 µM | > 100 | > 100 µM | > 100
